The test has as its target NS5B polymerase (Hepatitis C virus genotype 1b, UniProt P26663). The experiment in a line: HCV polymerase inhibition assay (FlashPlate). In kind it is biochemical. To be noted: 20 nM enzyme, 75 min at 28° C. On the procedure: Compounds were tested for HCV polymerase inhibition. Assays were performed in a 96-well streptavidin-coated FlashPlate using 20 nM enzyme, 0.5 μCi of [α-^33P]GTP, 0.6 μM GTP, and 250 nM 5′biotinylated oligo (rG13)/poly rC in 20 mM Tris-HCl, pH 7.5, 5 mM MgCl2, 5 mM dithiothreitol, 0.1 g/L bovine serum albumin, and 100 U/ml RNAse inhibitor. The reaction was stopped by aspiration after 75 min at 28° C. and the plate was washed several times. After washing and drying the plate, incorporated radioactivity was counted using a Microbeta scintillation counter. IC50 values were calculated relative to the uninhibited control and inhibition data were fitted to a 4-parameter IC50 equation. For very potent inhibitors, the data were fitted to a tight binding quadratic equation to obtain IC50 values.

Data on 4 compounds can be found in patent publication US20080227774A1, “5,5-DISUBSTITUTED-INDOLIZINONE COMPOUNDS” (priority 2007, published 2008).

As usually defined, the IC50 is the concentration needed to halve the response being measured. A lower IC50 goes with greater potency in that assay.

Sequence of NS5B polymerase (P26663 2420-3010): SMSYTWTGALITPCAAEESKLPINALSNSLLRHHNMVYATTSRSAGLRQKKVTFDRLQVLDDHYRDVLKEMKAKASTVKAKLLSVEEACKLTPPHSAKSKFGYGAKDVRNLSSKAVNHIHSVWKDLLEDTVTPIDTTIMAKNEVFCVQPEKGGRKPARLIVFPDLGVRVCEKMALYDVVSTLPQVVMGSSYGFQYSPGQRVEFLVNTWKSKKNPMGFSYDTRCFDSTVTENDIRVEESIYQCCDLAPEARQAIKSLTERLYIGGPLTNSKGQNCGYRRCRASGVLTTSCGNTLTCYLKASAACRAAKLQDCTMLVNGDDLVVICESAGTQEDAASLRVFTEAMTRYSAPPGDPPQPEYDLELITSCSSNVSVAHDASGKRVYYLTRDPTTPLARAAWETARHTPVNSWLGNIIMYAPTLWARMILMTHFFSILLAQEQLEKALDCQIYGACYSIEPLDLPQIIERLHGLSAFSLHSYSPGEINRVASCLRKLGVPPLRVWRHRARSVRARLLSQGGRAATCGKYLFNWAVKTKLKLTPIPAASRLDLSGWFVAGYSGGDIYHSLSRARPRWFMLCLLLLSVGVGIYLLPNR

Consider `CC(C)CCC1(C)C(=O)C(C2=Nc3ccccc3S(=O)(=O)N2)=C(O)c2cccn21` (stereo not shown) [Example 1, 7-(1,1-Dioxo-1,2-dihydro-1λ^6-benzo[1,2,4]thiadiazin-3-yl)-8-hydroxy-5-methyl-5-(3-methylbutyl)indolizin-6-one], for which the IC50 was less than 50 µM.

The compound `CC1(Cc2ccc(F)c(Cl)c2)C(=O)C(C2=NS(=O)(=O)c3cc(NS(C)(=O)=O)ccc3N2)=C(O)c2cccn21` (stereo not shown) [Example 4, N-{3-[5-(3-Chloro-4-fluoro-benzyl)-8-hydroxy-5-methyl-6-oxo-5,6-dihydro-indolizin-7-yl]-1,1-dioxo-1,4-dihydro-1λ^6-benzo[1,2,4]thiadiazin-7-yl}-methanesulfonamide] had an IC50 of less than 50 µM.

`CC(C)CCC1(C)C(=O)C(C2=NS(=O)(=O)c3cc(NS(C)(=O)=O)ccc3N2)=C(O)c2cccn21` (stereo not shown) [Example 2, N-{3-[8-Hydroxy-5-methyl-5-(3-methylbutyl)-6-oxo-5,6-dihydroindolizin-7-yl]-1,1-dioxo-1,2-dihydro-1λ^6-benzo[1,2,4]thiadiazin-7-yl}methanesulfonamide]: the IC50 was less than 50 µM.

Compound `C[C@]1(Cc2ccc(F)cc2)C(=O)C(C2=NS(=O)(=O)c3cc(NS(C)(=O)=O)ccc3N2)=C(O)c2cccn21` [Example 3, N-{3-[5-(S)-(4-Fluoro-benzyl)-8-hydroxy-5-methyl-6-oxo-5,6-dihydro-indolizin-7-yl]-1,1-dioxo-1,4-dihydro-1λ^6-benzo[1,2,4]thiadiazin-7-yl}-methanesulfonamide] yielded an IC50 of less than 50 µM.
